Test results: patent publication US7491819B1 (priority 2004, dated 2009)
Like-named read-outs stand apart in the source and are kept apart here.

Legend:
[1] = target: T1, HIV-integrase (Human immunodeficiency virus type 1 group M subtype B, UniProt P12497); experiment: HIV-Integrase Inhibition Activity (SPA bead strand-transfer assay); format: biochemical; settings: Table 2a; read-out: HIV-Integrase Inhibition Activity
T1 construct: Recombinant integrase (0.26 ng) was incubated with the beads
How it was run: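 Biotin-labelled substrate DNA (5 pmole) bound to streptavidin SPA beads, preloaded with recombinant integrase (0.26 ng) for 90 min at 37° C, then washed. Inhibitors and 0.1 fmol P33-labelled target DNA added; reaction stopped with 10 mM EDTA. Integration read as scintillation CPM.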

[2] = test system: NL-Rluc virus; experiment: Inhibition of HIV replication (recombinant NL-Rluc virus, luciferase); format: cell-based; settings: Human immunodeficiency virus 1, read-out: Inhibition of HIV replication
[3] = test system: NL36G virus
Protocol: Virus and cell lines. The T-cell line, MT-2, was obtained through the AIDS Research and Reference Reagent Program. MT-2 cells were sub-cultured twice a week in RPMI 1640 medium supplemented with 10% fetal bovine serum, 2 mM L-glutamine, and 10 mM HEPES buffer pH 7.5. The HIV-1303B virus is a molecular clone derived from the NL4-3 strain of HIV-1 that was obtained from the NIH AIDS Research and Reference Reagent Program. For combinations with enfuvirtide, the NL36G virus was used. […] Virus stocks were made by transfecting 293T cells with a proviral DNA clone using LipofectAMINE PLUS (Invitrogen), according to the manufacturer's instructions. Three days post-transfection, virus was harvested and passaged once in MT-2 cells before titration in MT-2 cells.
Chemicals. Example 19, atazanavir, didanosine, stavudine, efavirenz, and enfuvirtide (T-20) were synthesized by Bristol-Myers Squibb using published or known reactions. […] Tenofovir was tested as tenofovir disopoxil fumarate. Zidovudine and zalcitabine were purchased from Sigma, and emtricitabine from Moravek Biochemicals.
Drug Susceptibility and Cytotoxicity Assays. For drug susceptibility assays, MT-2 cells were infected with HIV-1 303B (or NL36G), at an MOI of 0.001, and seeded into 96-well microtiter plates (2.5×10^5 cells/ml) containing serial dilutions of test compounds. […] Each drug ratio consisted of an array of 3-fold serial dilutions, and was performed with eight or more replicas on separate multi-well plates. HIV infected cells were incubated at 37° C. in 5% CO2, and on day five post-infection, the extent of virus replication was measured by determining cell viability using the CellTiter 96 Aqueous Non-Radioactive Cell Proliferation Assay (Promega). […] Cytotoxicity assays were performed in parallel with the combination experiments. Here, uninfected cells were exposed to the same drug combinations, and assayed after five days for cell viability using the MTS assay.
Analysis of Drug Combination Effects. For determination of combination index (CI) values, drugs were diluted in a fixed ratio and multiple ratios were analyzed. The drug serial dilutions spanned a range of concentrations near the EC50 value of each compound, so that equivalent antiviral activities could be compared. The normalized responses from each therapy are fit to the four-parameter logistic model with a common minimum and maximum across all therapies. Conceptually, this equation can be written as
In this equation, Fa stands for “fraction affected,” and represents the fraction of the viral load that has been inactivated. […] The EC50, represented by the Ci in the above equation, is the drug concentration that is expected to reduce the amount of virus by 50%, and the Bi are the parameters that reflects the slope of the concentration-response curve. For this assay, A is the bottom plateau common to all curves, D is the common top plateau, Bj is the “slope” parameter for the jth therapy, and Cj is the concentration that produces an effect equal to the average of A and D for the jth therapy. Therapies 1 and 2 correspond to mono therapies 1 and 2, respectively. Therapies 3, 4, and 5 correspond to the three combination therapies. EC50 values for each drug were determined from the single drug experiments, using the above equation. The equation was fit using a nonlinear regression routine (Proc Nlin) in PC SAS version 8.2 (SAS Institute Inc.).
To assess antiviral effects of different drug combination treatments, combination indices (CIs) were calculated according to Chou and Rideout. The combination index was computed as
In this equation [Dm]1 and [Dm]2 are the concentrations of drugs that would individually produce a specific level of effect, while [D]1 and [D]2 are the concentrations of drugs in combination that would produce the same level of effect.
Theoretically, additivity is implied if the CI is equal to one, synergy if the CI is less than one, and antagonism if the CI is greater than one.

[4] = test system: MT-2 cells; experiment: Cytotoxicity assay of the drug combinations, uninfected cells, MTS; format: cell-based; settings: highest concentrations tested, five days
Protocol: Drug Susceptibility and Cytotoxicity Assays. For drug susceptibility assays, MT-2 cells were infected with HIV-1 303B (or NL36G), at an MOI of 0.001, and seeded into 96-well microtiter plates (2.5×10^5 cells/ml) containing serial dilutions of test compounds. […] Each drug ratio consisted of an array of 3-fold serial dilutions, and was performed with eight or more replicas on separate multi-well plates. HIV infected cells were incubated at 37° C. in 5% CO2, and on day five post-infection, the extent of virus replication was measured by determining cell viability using the CellTiter 96 Aqueous Non-Radioactive Cell Proliferation Assay (Promega). Maximal cell protection was typically seen in samples treated with the highest drug concentration. In the cell viability assay, the tetrazolium compound MTS (3-(4,5-dimethylthiazol-2-yl)-5-(3-carboxymethoxyphenyl)-2-4-sulphophenyl-2H-tetrazolium) is added to cells, whereby enzymes in metabolically active cells convert it into a colored formazan product, which is quantitated by reading absorbance at 490 nm. Cytotoxicity assays were performed in parallel with the combination experiments. Here, uninfected cells were exposed to the same drug combinations, and assayed after five days for cell viability using the MTS assay.

[5] = in combination with Example 19, EC50 ratio 1:1 (molar 5:44)
[6] = in combination with Example 19, EC50 ratio 1:2.5 (molar 1:22)
[7] = in combination with Example 19, EC50 ratio 2.5:1 (molar 25:88)

| Compound | melting point | IC50 [1] [nM] | EC50 [2] [nM] | also measured |
| --- | --- | --- | --- | --- |
| Cn1ccc(-c2cc(F)ccc2CNC(=O)c2nc3n(c(=O)c2O)CCOC3(C)C)n1 [Example 286, Pyrimido[2,1-c][1,4]oxazine-2-carboxamide, N-[[4-fluoro-2-(1-methyl-1H-pyrazol-3-yl)phenyl]methyl]-4,6,7,9-tetrahydro-3-hydroxy-9,9-dimethyl-4-oxo-] | 220 °C | 2 to 100 | 3 to 100 | – |
| CCC1OCCn2c1nc(C(=O)NCc1ccc(F)cc1-n1cnc(C)n1)c(O)c2=O (stereo not drawn) [Example 284, Pyrimido[2,1-c][1,4]oxazine-2-carboxamide, 9-ethyl-N-[[4-fluoro-2-(3-methyl-1H-1,2,4-triazol-1-yl)phenyl]methyl]-4,6,7,9-tetrahydro-3-hydroxy-4-oxo-e] | 213 °C | 2 to 100 | 3 to 100 | – |
| Cc1ncn(-c2ccccc2CNC(=O)c2nc3n(c(=O)c2O)CCOC3(C)C)n1 [Example 288, Pyrimido[2,1-c][1,4]oxazine-2-carboxamide, 4,6,7,9-tetrahydro-3-hydroxy-9,9-dimethyl-N-[[2-(3-methyl-1H-1,2,4-triazol-1-yl)phenyl]methyl]-4-oxo-e] | 234 °C (dec.) | 2 to 100 | 3 to 100 | – |
| Cn1nccc1-c1cc(F)ccc1CNC(=O)c1nc2n(c(=O)c1O)CCOC2(C)C [Example 287, Pyrimido[2,1-c][1,4]oxazine-2-carboxamide, N-[[4-fluoro-2-(1-methyl-1H-pyrazol-5-yl)phenyl]methyl]-4,6,7,9-tetrahydro-3-hydroxy-9,9-dimethyl-4-oxo-] | 221 °C | 2 to 100 | 3 to 100 | – |
| enfuvirtide | – | – | – | overall antiviral effect of the two-drug combination with Example 19 (in words) ([3]; classification from combination indices): synergistic; Combination Indices at 50% HIV Inhibition (Confidence Interval) [3, 5]: 0.68 (0.59, 0.77); Combination Indices at 75% HIV Inhibition (Confidence Interval) [3, 5]: 0.59 (0.48, 0.70); Combination Indices at 90% HIV Inhibition (Confidence Interval) [3, 5]: 0.52 (0.37, 0.67); Combination Indices at 50% HIV Inhibition (Confidence Interval) [3, 6]: 0.75 (0.65, 0.85); Combination Indices at 75% HIV Inhibition (Confidence Interval) [3, 6]: 0.60 (0.49, 0.70); Combination Indices at 90% HIV Inhibition (Confidence Interval) [3, 6]: 0.48 (0.34, 0.61); Combination Indices at 50% HIV Inhibition (Confidence Interval) [3, 7]: 0.76 (0.65, 0.86); Combination Indices at 75% HIV Inhibition (Confidence Interval) [3, 7]: 0.73 (0.59, 0.86); Combination Indices at 90% HIV Inhibition (Confidence Interval) [3, 7]: 0.71 (0.50, 0.92); EC50 ([3]; single drug, MT-2 cells, MOI 0.001, day five, MTS cell viability): 61 nM; cytotoxicity of the drug combinations with Example 19 [4]: No significant cytotoxicity |
